The values below are quoted from earlier work in US10946025B2, “Compounds” (Glaxo Group Limited, priority 2009, dated 2021).

Data set [1] concerns neutrophils. The following applies: treatment of neutrophils; Thelen et al. 1994.
Data set [2] deals with neutrophil. The following applies: background literature; for superoxide release: neutrophils.

With `COC[C@H]1OC(=O)c2coc3c2[C@@]1(C)C1=C(C3=O)[C@@H]2CCC(=O)[C@@]2(C)C[C@H]1OC(C)=O` [wortmannin], the “fMLP-induced respiratory burst response” value in data set [1] is listed as “prevents”. For the same compound, in data set [2], the neutrophil migration result is given as “block” and the superoxide release result is “block”.
As for `O=c1cc(N2CCOCC2)oc2c(-c3ccccc3)cccc12` [LY294002], in data set [2], the neutrophil migration result is reported as “block” and the superoxide release entry is “block”.
